In brackets after ≈: the same amount, converted by molar mass.

Common to all, as to format: functional
The test system of experiment [1] is Spodoptera frugiperda. Briefly: Insecticidal activity against third instar larvae of Spodoptera frugiperda assessed as malformation and mortality at 100 ppm administered through larval diet.
Experiment [2] has as its system Spodoptera frugiperda. Briefly: Effect on feeding preference of third instar larvae of Spodoptera frugiperda assessed as food consumption at 100 ppm administered through larval diet by feeding election test relative to control.
Experiment [3] deals with Staphylococcus aureus. Briefly: Antibacterial activity against Staphylococcus aureus ATCC 6538P after 24 hrs by broth microdilution method.
Experiment [4] concerns Staphylococcus aureus. Kind of experiment: Antibacterial activity against methicillin-resistant Staphylococcus aureus F7 after 24 hrs by broth microdilution method.

For `C=C[C@@]1(C)CC[C@@H]2[C@@]3(C)CCC[C@@](C)(CO[C@@H]4OC[C@H](O)[C@H](O)[C@H]4O)[C@@H]3CC[C@@]2(C)O1`, the Activity in experiment [1] was determined as 80%; in experiment [2], 1. In addition, the MIC in experiment [3] turned out to be 2000 µg/mL (≈ 4.56 mM); in experiment [4], 1250 µg/mL (≈ 2.85 mM).

For the origin of these results see ChEMBL document CHEMBL1158735, “Manoyl oxide diterpenoids from Grindelia scorzonerifolia” (2005).
